Here are results for five compounds from patent publication US20160355465A1, “NOVEL MODIFIED CURCUMINS AND THEIR USES” (THE RESEARCH FOUNDATION OF STATE UNIVERSITY OF NEW YORK, priority 2011, published 2016).

One data set addresses MMP-8 (Homo sapiens, UniProt P22894). Briefly: fluorimetric assay of MMP activity. Type of data set: biochemical. Conditions: synthetic fluorescent peptide substrate Mca-Lys-Pro-Leu-Gly-Leu-Dpa-Ala-Arg-NH2.
Data set [1] in a line: toxicity / tolerability in diabetic rats. It is filed as in vivo. Conditions: at elevated levels. The protocol:
The following five experimental groups (n=3 rats per group) were established: Non-diabetic control rats (NDC) treated by daily application of white petrolatum jelly (“vehicle”) for 7 days, diabetic rats (D group) treated daily with vehicle alone; diabetics treated by daily topical application of either a 1% (D+1%) or a 3% (D+3%) suspension of Compound 4 in the vehicle; and diabetics treated systemically by daily oral intubation of a 1 ml suspension of Compound 4 (in carboxymethylcellulose) at a dose of 30 mg/kg over the 7-day treatment protocol (D+30 mg/kg). At the end of this time period, the circular wounds were clinically assessed by measuring diameter of the wound in millimeters, blood samples were collected, the rats were sacrificed, and skin samples collected for histological/histochemical, and biochemical assessment as described below. • 1) On day 7 after inducing wound healing, the animals were anesthetized and blood samples collected for blood glucose (one Touch Ultra Glucometer; Johnson & Johnson, New Brunswick, N.J.) and Hemoglobin A1c (A1c Now+; Bayer Health Care, Sunnyvale, Calif.) measurements. • 2) Photographs were taken for clinical observations to assess wound closure. The % reduction of the wound surface was calculated by measuring the diameter (in millimeters) of each wound before and after the treatment protocol. • 3) Wound tissues on day 7 were excised from 3 sites per rat and pooled for biochemical analysis. […] The supernates were then dialyzed against the Tris-HCl, NaCl, CaCl2 buffer, and the proteinases partially purified by ammonium sulfate precipitation and examined for levels of MMP-2 (72 kD gelatinse) and MMP-9 (92 kD gelatinase) by gelatin zymography using denatured type I collagen (gelatin) as the substrate (6). • 4) The remaining wounds were assessed histologically & histochemically by Dr. Steve McClain (McClain Labs, Smithtown, N.Y.) as follows: Biopsies of each wound site were taken and included both the wound tissue and surrounding non-wounded tissue. […]

The target of a further data set is MMP-12 (Homo sapiens, UniProt P39900). The data set is described as follows: fluorimetric assay of MMP activity. Type of data set: biochemical. Particulars: synthetic fluorescent peptide substrate Mca-Lys-Pro-Leu-Gly-Leu-Dpa-Ala-Arg-NH2.
Chain of MMP-12 (P39900 106-470): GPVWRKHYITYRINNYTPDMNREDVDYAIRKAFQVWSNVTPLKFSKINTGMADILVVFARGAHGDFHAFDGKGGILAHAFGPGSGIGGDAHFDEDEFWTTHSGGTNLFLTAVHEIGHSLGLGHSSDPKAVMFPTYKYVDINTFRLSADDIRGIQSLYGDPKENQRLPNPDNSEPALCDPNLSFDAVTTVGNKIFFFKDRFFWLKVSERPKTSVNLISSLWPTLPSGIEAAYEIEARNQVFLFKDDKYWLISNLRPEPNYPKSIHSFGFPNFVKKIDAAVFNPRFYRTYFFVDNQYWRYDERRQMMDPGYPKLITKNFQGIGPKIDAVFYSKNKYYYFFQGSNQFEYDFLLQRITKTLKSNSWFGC
The target in another data set is T1, MMP-1 (Homo sapiens, UniProt P03956).
T1 sequence (P03956 100-469): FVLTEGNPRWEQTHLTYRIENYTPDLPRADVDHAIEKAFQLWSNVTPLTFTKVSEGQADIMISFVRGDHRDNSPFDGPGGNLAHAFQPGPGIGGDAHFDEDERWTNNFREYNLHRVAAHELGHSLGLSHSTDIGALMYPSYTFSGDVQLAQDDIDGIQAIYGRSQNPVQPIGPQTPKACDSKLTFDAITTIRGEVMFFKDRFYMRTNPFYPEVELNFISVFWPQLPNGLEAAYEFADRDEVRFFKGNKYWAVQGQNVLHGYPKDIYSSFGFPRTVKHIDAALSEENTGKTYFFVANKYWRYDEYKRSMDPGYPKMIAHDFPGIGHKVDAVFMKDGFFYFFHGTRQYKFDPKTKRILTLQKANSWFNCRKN
Briefly: fluorimetric assay of MMP activity. It is filed as biochemical. Particulars: synthetic fluorescent peptide substrate Mca-Lys-Pro-Leu-Gly-Leu-Dpa-Ala-Arg-NH2.

The target in the next data set is T2, MMP-2 (Homo sapiens, UniProt P08253).
T2 sequence (P08253 110-660): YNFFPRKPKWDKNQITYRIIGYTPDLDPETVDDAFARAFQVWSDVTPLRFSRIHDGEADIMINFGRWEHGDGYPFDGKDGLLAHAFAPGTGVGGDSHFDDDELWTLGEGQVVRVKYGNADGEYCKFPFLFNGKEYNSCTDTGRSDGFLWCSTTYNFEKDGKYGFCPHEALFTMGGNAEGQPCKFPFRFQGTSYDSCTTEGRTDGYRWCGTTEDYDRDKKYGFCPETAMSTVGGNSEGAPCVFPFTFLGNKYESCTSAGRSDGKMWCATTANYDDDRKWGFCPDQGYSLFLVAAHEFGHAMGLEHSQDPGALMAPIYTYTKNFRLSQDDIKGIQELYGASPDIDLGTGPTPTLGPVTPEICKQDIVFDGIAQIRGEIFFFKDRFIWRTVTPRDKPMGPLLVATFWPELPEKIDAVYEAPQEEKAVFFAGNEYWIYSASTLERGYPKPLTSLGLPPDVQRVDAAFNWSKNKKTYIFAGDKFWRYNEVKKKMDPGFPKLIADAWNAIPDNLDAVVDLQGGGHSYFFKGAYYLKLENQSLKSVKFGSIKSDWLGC
The data set is described as follows: fluorimetric assay of MMP activity. It is filed as biochemical.

The target of the next data set is MMP-9 (Homo sapiens, UniProt P14780). Briefly: fluorimetric assay of MMP activity. Type of data set: biochemical. Particulars: synthetic fluorescent peptide substrate Mca-Lys-Pro-Leu-Gly-Leu-Dpa-Ala-Arg-NH2.
Chain of MMP-9 (P14780 94-707): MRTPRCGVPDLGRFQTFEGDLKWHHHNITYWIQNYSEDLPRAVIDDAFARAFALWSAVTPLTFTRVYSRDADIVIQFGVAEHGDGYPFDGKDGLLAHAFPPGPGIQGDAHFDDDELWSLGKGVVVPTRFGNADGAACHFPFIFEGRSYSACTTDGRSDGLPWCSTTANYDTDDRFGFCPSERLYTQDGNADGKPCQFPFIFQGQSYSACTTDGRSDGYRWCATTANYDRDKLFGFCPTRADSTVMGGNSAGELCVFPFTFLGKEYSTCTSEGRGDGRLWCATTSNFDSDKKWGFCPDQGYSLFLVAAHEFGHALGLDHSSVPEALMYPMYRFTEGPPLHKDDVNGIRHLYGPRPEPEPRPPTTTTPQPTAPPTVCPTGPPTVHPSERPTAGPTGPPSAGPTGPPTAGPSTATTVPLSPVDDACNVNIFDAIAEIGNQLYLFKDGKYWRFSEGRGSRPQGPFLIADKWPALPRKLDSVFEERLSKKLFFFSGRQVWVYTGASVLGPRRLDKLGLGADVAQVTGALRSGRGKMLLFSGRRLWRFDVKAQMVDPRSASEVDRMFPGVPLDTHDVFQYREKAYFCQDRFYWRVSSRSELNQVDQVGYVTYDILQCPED
The target in another data set is MMP-14 (Homo sapiens, UniProt P50281). The data set is described as follows: fluorimetric assay of MMP activity. Type of data set: biochemical. Particulars: synthetic fluorescent peptide substrate Mca-Lys-Pro-Leu-Gly-Leu-Dpa-Ala-Arg-NH2.
For the next data set, the target named is MMP-3 (Homo sapiens, UniProt P08254). Briefly: fluorimetric assay of MMP activity. It is filed as biochemical. Conditions: synthetic fluorescent peptide substrate Mca-Lys-Pro-Leu-Gly-Leu-Dpa-Ala-Arg-NH2.
Chain of MMP-3 (P08254 100-477): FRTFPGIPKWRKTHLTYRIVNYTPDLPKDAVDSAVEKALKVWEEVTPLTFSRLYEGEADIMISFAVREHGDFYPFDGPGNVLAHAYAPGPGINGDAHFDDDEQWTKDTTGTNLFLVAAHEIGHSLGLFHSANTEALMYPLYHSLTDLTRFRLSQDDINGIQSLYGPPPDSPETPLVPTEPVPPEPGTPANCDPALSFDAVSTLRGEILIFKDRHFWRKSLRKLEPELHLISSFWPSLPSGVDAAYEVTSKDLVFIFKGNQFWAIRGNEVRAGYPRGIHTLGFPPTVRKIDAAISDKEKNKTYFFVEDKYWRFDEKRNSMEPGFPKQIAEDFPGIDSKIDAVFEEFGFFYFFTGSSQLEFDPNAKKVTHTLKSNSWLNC
In data set [2] the test system is MMPs 1, 2, 3, 7, 8, 9, 12, 13 and 14. Briefly: activity against a battery of MMPs (summary in words). Type of data set: biochemical, human.
The target in another data set is T3, MMP-7 (Homo sapiens, UniProt P09237).
T3 sequence (P09237 95-267): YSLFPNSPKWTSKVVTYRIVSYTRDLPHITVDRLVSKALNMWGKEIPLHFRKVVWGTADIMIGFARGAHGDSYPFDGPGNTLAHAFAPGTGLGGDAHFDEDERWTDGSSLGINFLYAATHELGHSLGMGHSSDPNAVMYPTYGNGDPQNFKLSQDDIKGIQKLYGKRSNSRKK
Briefly: fluorimetric assay of MMP activity. Type of data set: biochemical. Conditions: synthetic fluorescent peptide substrate Mca-Lys-Pro-Leu-Gly-Leu-Dpa-Ala-Arg-NH2.

For another data set, the target named is MMP-13 (Homo sapiens, UniProt P45452). Briefly: fluorimetric assay of MMP activity. Type of data set: biochemical. Conditions: synthetic fluorescent peptide substrate Mca-Lys-Pro-Leu-Gly-Leu-Dpa-Ala-Arg-NH2.
The test system of a further data set is collagen in wound tissue. Briefly: collagen fractions (hydroxyproline) in wound tissue of diabetic rats. It is filed as in vivo, rat. Conditions: wound tissue day 6. An excerpt:
Biochemical measurements were made on wound tissue 6 days after creating the standardized 6 mm diameter wounds in the various groups of rats including: (1) non-diabetic controls (NDC); (2) Diabetic (DM) rats treated topically with 0.25% curcumin; (3) DM treated with 1% curcumin; (4) DM treated with 0.25% Compound 4, and (5) DM rats treated with 1% Compound 4. The wound tissues from these five different groups were then hydrolyzed (after extraction; see below) to degrade the collagen to individual amino acids, and the amino acid unique to collagen, hydroxyproline, was measured by a commercial colorimetric assay. Prior to hydrolysis, the wound tissues were extracted (at 4° C. to maintain the triple-helical conformation of the collagen molecules) to obtain first the salt-soluble fraction, then the acid-soluble fraction, leaving the insoluble fraction.

A short description of data set [3]: blood glucose of the rats of the collagen experiment. Type of data set: in vivo, rat. Conditions: diabetic rats.
The mark [4] stands for this setting: synthetic fluorescent peptide substrate Mca-Lys-Pro-Leu-Gly-Leu-Dpa-Ala-Arg-NH2, read-out: IC50 MMP-2.

What is called IC50 is the concentration needed to halve the response being measured.

Like-named read-outs stand apart in the source and are kept apart here.

Chain of MMP-8 (P22894 101-467): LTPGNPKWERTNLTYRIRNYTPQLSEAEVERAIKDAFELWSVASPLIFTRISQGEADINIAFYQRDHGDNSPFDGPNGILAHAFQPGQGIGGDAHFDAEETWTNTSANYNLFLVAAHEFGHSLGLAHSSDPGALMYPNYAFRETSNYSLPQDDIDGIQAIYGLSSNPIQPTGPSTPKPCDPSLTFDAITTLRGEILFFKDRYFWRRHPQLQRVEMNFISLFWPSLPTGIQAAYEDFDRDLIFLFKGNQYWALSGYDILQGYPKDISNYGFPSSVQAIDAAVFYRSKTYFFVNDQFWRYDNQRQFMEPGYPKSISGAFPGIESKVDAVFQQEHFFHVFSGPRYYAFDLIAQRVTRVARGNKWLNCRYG

For `COc1cc(/C=C/C(=O)C(C(=O)/C=C/c2ccc(O)c(OC)c2)C(=O)Nc2ccccc2)ccc1O` [Compound 3, 1,7-Bis(4-hydroxy-3-methoxyphenyl)-4-N-phenylaminocarbonylhepta-1E, 6E-dien-3,5-dione], the IC50 at MMP-8 worked out at 2.5 ± 0.3 µM; against MMP-12 it was 4.5 ± 0.5 µM; against MMP-1, 68 ± 3.2 µM; on MMP-2 (setting [4]) it was 6.3 ± 0.9 µM; against MMP-9 it was 8.7 ± 0.7 µM; at MMP-14 it was 41.3 ± 4.9 µM. Also, the IC50 on MMP-3 turned out to be 5.3 ± 0.7 µM; at MMP-7 it was 21.5 ± 1 µM. For the same compound, the toxicity result in data set [1] was “some toxicity”. For the same compound, the “anti-MMP activity (in words)” value in data set [2] is recorded as “highly active”.
Take `COC(=O)C(C(=O)/C=C/c1ccc(O)c(OC)c1)C(=O)/C=C/c1ccc(O)c(OC)c1` [Compound 2, 1,7-Bis(4-hydroxy-3-methoxyphenyl)-4-methoxycarbonylhepta-1E,6E-dien-3,5-dione]: the IC50 on MMP-8 amounted to 30.8 ± 1.5 µM; at MMP-12, 27.8 ± 1.7 µM; against MMP-1, 74 ± 3.5 µM; on MMP-2 (setting [4]), 25.3 ± 1.3 µM; against MMP-9, 55 ± 17.3 µM; against MMP-14 it was 48.5 ± 4.3 µM. For the same compound, the IC50 worked out at 32.5 ± 2.8 µM at MMP-3 and 48.8 ± 0.5 µM at MMP-7.
As to `c1cnc2c(c1)ccc1cccnc12` [1,10-Phen, 1,10-phenanthroline, reference compound], the IC50 is 31.3 ± 0.5 µM against MMP-8; 29.5 ± 1.3 µM against MMP-12; 42 ± 1.1 µM against MMP-1; 73.8 ± 1 µM at MMP-2 (setting [4]); 45 ± 12.6 µM against MMP-9; 43.8 ± 4.2 µM at MMP-14. Moreover, the IC50 came to 77 ± 3.2 µM against MMP-3, 50 ± 10.4 µM against MMP-13 and 197 ± 8.8 µM against MMP-7.
Turning to `COc1cc(/C=C/C(=O)CC(=O)/C=C/c2ccc(O)c(OC)c2)ccc1O` [Compound 1, 1,7-Bis(4-hydroxy-3-methoxyphenyl)hepta-1E,6E-dien-3,5-dione, reference compound], the “Collagen Fractions (%) Acid-soluble” value in the data set with collagen in wound tissue (0.25% topical) is reported as 48.3%; in the data set with collagen in wound tissue (1% topical), 50.9%. For the same compound, the “Collagen Fractions (%) Insoluble” value in the data set with collagen in wound tissue (0.25% topical) was found to be 36.4%; in the data set with collagen in wound tissue (1% topical), 27.1%. The “Collagen Fractions (%) Salt-soluble” value in the data set with collagen in wound tissue (0.25% topical) is listed as 15.3%; with collagen in wound tissue (1% topical), 22.0%. Besides, the IC50 at MMP-12 worked out at 2.6 ± 0.2 µM; on MMP-2, 5 ± 0.7 µM; against MMP-9 it was 30 ± 2.9 µM; at MMP-14 it was 29.5 ± 3.2 µM; against MMP-3 it was 4.7 ± 0.8 µM; at MMP-7 it was 51.8 ± 2.5 µM. The “Blood Glucose” value in data set [3] (0.25% topical) stood at 569 mg/dL; in data set [3] (1% topical) it was 540 mg/dL.
For the compound `COC(=O)C(C(=O)/C=C/c1ccc(O)cc1)C(=O)/C=C/c1ccc(O)cc1` [Compound 5, 1,7-Bis(4-hydroxyphenyl)-4-methoxycarbonylhepta-1E,6E-dien-3,5-dione], the IC50 was 20 ± 2 µM against MMP-8; 5.3 ± 0.3 µM against MMP-12; 76.3 ± 6.5 µM against MMP-1; 23.8 ± 0.9 µM on MMP-2 (setting [4]); 43.3 ± 4.4 µM against MMP-9; 40 ± 8.4 µM against MMP-14. The IC50 at MMP-3 came to 28.3 ± 1 µM; against MMP-13, 26.7 ± 1.7 µM; against MMP-7, 57.5 ± 4.6 µM.
